Data published in patent US7476664B2, “Bis-2-difluoro-pyrrolo[2,1-C][1,4]benzodiazepine dimers” (priority 2007, dated 2009).

Test system: calf thymus (CT) DNA
Type: binding
Details: for ΔTm (° C.) after incubation at 37° C. for 0 h / ΔTm (° C.) after incubation at 37° C. for 18 h / ΔTm (° C.) after incubation at 37° C. for 36 h: [PBD]:[DNA] molar ratio 1:5, CT-DNA 100 μM, ligand 20 μM, 10 mM sodium phosphate + 1 mM EDTA, pH 7.00; for ΔTm (° C.) after incubation at 37° C. for 0 h: 0 h incubation at 37° C.; for ΔTm (° C.) after incubation at 37° C. for 18 h: 18 h incubation at 37° C.; for ΔTm (° C.) after incubation at 37° C. for 36 h: 36 h incubation at 37° C.
Description: The DNA binding affinity of the novel C2 di-fluoro PBD dimers (VIIa-c) was investigated by thermal denaturation studies using calf thymus (CT) DNA (Jones, G. B.; Davey, C. L.; Jenkins, T. C.; Kamal, A.; Kneale, G. G.; Neidle, S.; Webster, G. D.; Thurston, D. E. Anti-Cancer Drug Des. 1990, 5, 249. McConnaughie, A. W.; Jenkins, T. C. J. Med. Chem. 1995, 38, 3488). The studies for these compounds (VIIa-c) were carried out by DNA/ligand molar ratios of 5:1. The increase in the helix melting temperature. (ΔTm) for each compound was examined after 0, 18 and 36 h incubation at 37° C.

| Compound | ΔTm (° C.) after incubation at 37° C. for 0 h [°C] | ΔTm (° C.) after incubation at 37° C. for 18 h [°C] | ΔTm (° C.) after incubation at 37° C. for 36 h [°C] | ΔTm (increase in the helix melting temperature) (under identical experimental conditions, DNA/ligand molar ratio 5:1, incubation time not stated) [°C] |
| --- | --- | --- | --- | --- |
| 1,1′-{[(pentane-1,5-diyl)]dioxy}bis[(11aS)-2,2-difluoro-7-methoxy-1,2,3,11a-tetrahydro-5H-pyrrolo[2,1-c][1,4]benzodiazepin-5-one [VIIc] | 18.9 | 24.5 | 28.4 | – |
| COc1ccc2c(c1)C(=O)N1CC(F)(F)C(OCCCOC3[C@@H]4C=Nc5ccc(OC)cc5C(=O)N4CC3(F)F)[C@@H]1C=N2 (stereo partly drawn) [VIIa, 1,1′-{[(propane-1,3-diyl)]dioxy}bis[(11aS)-2,2-difluoro-7-methoxy-1,2,3,11a-tetrahydro-5H-pyrrolo[2,1-c][1,4]benzodiazepin-5-one]] | 13.1 | 23.4 | 27.5 | – |
| COc1cc2c(cc1O)N=CC1CCCN1C2=O (stereo not shown) [DC-81, reference compound] | 0.3 | 0.7 | 0.7 | 0.7 |
| 1,1′-{[(butane-1,4-diyl)]dioxy}bis[(11aS)-2,2-difluoro-7-methoxy-1,2,3,11a-tetrahydro-5H-pyrrolo[2,1-c][1,4]benzodiazepin-5-one [VIIb] | 4.2 | 23.4 | 24.7 | – |
